PubChem BioAssay AID248 (DTP/NCI, 2004)
Values joined by “and” are separate entries in the source; they are usually repeats but may differ in a detail not shown here. Equal values may be shown once. Inconclusive results and toxic doses are left out. Cut-off read from the data, not from the text of the source: active = T/C of 150% or more; inactive = T/C below 125%.

Test system: L1210 leukemia ip in BDF1 mice, survival T/C
Assay: NCI In Vivo Anticancer Drug Screen. Data for tumor model L1210 Leukemia (intraperitoneal) in B6D2F1 (BDF1) mice
Conditions: endpoint: mean survival time, higher = longer survival
Method in brief: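 Mice bearing the transplanted tumor received compound or vehicle. Survival of the treated group was divided by that of the vehicle-treated control group to give the ratio.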

[1] = dose: 100.0 mg/kg/injection, schedule: Q01DX009 (ip), vehicle: saline with Tween-80
[2] = dose: 200.0 mg/kg/injection, schedule: Q01DX009 (ip), vehicle: saline with Tween-80
[3] = dose: 400.0 mg/kg/injection, schedule: Q01DX009 (ip), vehicle: saline with Tween-80
[4] = dose: 12.5 mg/kg/injection, schedule: Q01DX009 (ip), vehicle: saline with Tween-80
[5] = dose: 25.0 mg/kg/injection, schedule: Q01DX009 (ip), vehicle: saline with Tween-80
[6] = dose: 50.0 mg/kg/injection, schedule: Q01DX009 (ip), vehicle: saline with Tween-80
[7] = dose: 100.0 mg/kg/injection, schedule: Q04DX003 (ip), vehicle: saline with Tween-80
[8] = dose: 200.0 mg/kg/injection, schedule: Q04DX003 (ip), vehicle: saline with Tween-80
[9] = dose: 400.0 mg/kg/injection, schedule: Q04DX003 (ip), vehicle: saline with Tween-80
[10] = dose: 100.0 mg/kg/injection, schedule: Q01DX009 (ip), vehicle: Klucel (hydroxypropylcellulose) (HPC)
[11] = dose: 200.0 mg/kg/injection, schedule: Q01DX009 (ip), vehicle: Klucel (hydroxypropylcellulose) (HPC)
[12] = dose: 400.0 mg/kg/injection, schedule: Q01DX009 (ip), vehicle: Klucel (hydroxypropylcellulose) (HPC)
[13] = dose: 50.0 mg/kg/injection, schedule: Q01DX001 (ip), vehicle: saline
[14] = dose: 100.0 mg/kg/injection, schedule: Q01DX001 (ip), vehicle: saline
[15] = dose: 200.0 mg/kg/injection, schedule: Q01DX001 (ip), vehicle: saline
[16] = dose: 400.0 mg/kg/injection, schedule: Q01DX001 (ip), vehicle: saline
[17] = dose: 100.0 mg/kg/injection, schedule: Q04DX003 (ip), vehicle: Klucel (hydroxypropylcellulose) (HPC)
[18] = dose: 200.0 mg/kg/injection, schedule: Q04DX003 (ip), vehicle: Klucel (hydroxypropylcellulose) (HPC)
[19] = dose: 400.0 mg/kg/injection, schedule: Q04DX003 (ip), vehicle: Klucel (hydroxypropylcellulose) (HPC)

Measured: T/C

CC1CCC(C)C([N+](C)(C)C)C1 (stereo not given)
inactive: dose: 12.5 mg/kg/injection, schedule: Q04DX003 (ip), vehicle: saline 98 % of control | dose: 25.0 mg/kg/injection, schedule: Q04DX003 (ip), vehicle: saline 98 % of control | dose: 50.0 mg/kg/injection, schedule: Q04DX003 (ip), vehicle: saline 95 % of control | dose: 75.0 mg/kg/injection, schedule: Q04DX003 (ip), vehicle: saline 93 % of control

O=C(/C=C/c1ccc(Cl)c(Cl)c1)C1CCC2CCCCC2C1 (stereo not given)
inactive: [1] 90 % of control | dose: 100.0 mg/kg/injection, schedule: Q04DX002 (ip), vehicle: saline with Tween-80 105 % of control | [2] 93 % of control | dose: 200.0 mg/kg/injection, schedule: Q04DX002 (ip), vehicle: saline with Tween-80 101 % of control | [3] 90 % of control | dose: 400.0 mg/kg/injection, schedule: Q04DX002 (ip), vehicle: saline with Tween-80 90 % of control

Nc1nc2nc3c(nc2c(=O)[nH]1)CN(c1ccc(C(=O)O)cc1)C3=O
inactive: [4] 90 % of control | [5] 94 % of control | [6] 87 % of control

C=C(C)c1c2ccccc2cc2cccc(Sc3ccccc3)c12
inactive: [7] 95 % of control | [8] 96 % of control | [9] 95 % of control

O=C(Nc1cccc(F)c1)Nc1ccc2ccccc2c1
inactive: [10] 105 % of control | [11] 97 % of control | [12] 97 % of control

CC1CCCCC1NC(=O)NCCOC(=O)OCCNC(=O)NC1CCCCC1C (stereo not given)
inactive: [1] 95 % of control | [7] 100 % of control | [2] 95 % of control | [8] 91 % of control | [3] 90 % of control | [9] 86 % of control

N=C(N)S/C=C(/F)C(F)(F)CBr
inactive: [13] 95 % of control | [14] 101 % of control | [15] 113 % of control | [16] 101 % of control

O=[N+]([O-])c1ccc(N=Cc2ccccc2)c(O)c1
inactive: [14] 93 % of control | [15] 98 % of control | [16] 98 % of control

Cc1cc([N+](=O)[O-])ccc1NC(=O)OCc1ccccc1
inactive: dose: 100.0 mg/kg/injection, schedule: Q04DX002 (ip), vehicle: Klucel (hydroxypropylcellulose) (HPC) 99 % of control | dose: 200.0 mg/kg/injection, schedule: Q04DX002 (ip), vehicle: Klucel (hydroxypropylcellulose) (HPC) 101 % of control | dose: 400.0 mg/kg/injection, schedule: Q04DX002 (ip), vehicle: Klucel (hydroxypropylcellulose) (HPC) 89 % of control

S=P(N1CCCCC1)(N1CCCCC1)N1CCCCC1
inactive: [10] 100 % of control | [11] 103 % of control | [12] 100 % of control

CCOC1(OCC)CCC2(CC1)c1ccccc1-c1ccccc12
inactive: [17] 92 % of control | [18] 93 % of control | [19] 95 % of control

S=c1nc(-c2ccccc2)c(-c2ccccc2)n[nH]1
inactive: dose: 100.0 mg/kg/injection, schedule: Q04DX003 (ip), vehicle: saline 100 % of control | dose: 200.0 mg/kg/injection, schedule: Q04DX003 (ip), vehicle: saline 98 % of control | dose: 400.0 mg/kg/injection, schedule: Q04DX003 (ip), vehicle: saline 98 % of control

COC(=O)C(C)C(C)(O)C(C)(C)C (stereo not given)
inactive: [7] 101 % of control

CC(C)OC(=S)Nc1ccccc1
inactive: dose: 50.0 mg/kg/injection, schedule: Q01DX009 (ip), vehicle: Klucel (hydroxypropylcellulose) (HPC) 102 % of control | dose: 100.0 mg/kg/injection, schedule: Q01DX001 (ip), vehicle: gum acacia 102 % of control | [10] 107 % of control | dose: 200.0 mg/kg/injection, schedule: Q01DX001 (ip), vehicle: gum acacia 98 % of control | [11] 98 % of control | dose: 400.0 mg/kg/injection, schedule: Q01DX001 (ip), vehicle: gum acacia 95 % of control

CC(=O)OCCC/C(=C\c1ccc(Br)cc1)[N+](=O)[O-]
inactive: dose: 100.0 mg/kg/injection, schedule: Q01DX001 (ip), vehicle: carboxymethylcellulose (CMC) 97 % of control | dose: 200.0 mg/kg/injection, schedule: Q01DX001 (ip), vehicle: carboxymethylcellulose (CMC) 97 % of control

CCN(CC)C(=S)[S][Pb]([c]1ccccc1)([c]1ccccc1)[c]1ccccc1
inactive: dose: 100.0 mg/kg/injection, schedule: Q01DX001 (ip), vehicle: steriod suspending solution 97 % of control | dose: 200.0 mg/kg/injection, schedule: Q01DX001 (ip), vehicle: steriod suspending solution 92 % of control

Nc1ncc(C(=O)O)c(N)n1
inactive: dose: 12.5 mg/kg/injection, schedule: Q01DX001 (ip), vehicle: other 101 % of control | [4] 110 % of control | dose: 12.5 mg/kg/injection, schedule: Q04DX003 (ip), vehicle: saline with Tween-80 101 % of control | dose: 25.0 mg/kg/injection, schedule: Q01DX001 (ip), vehicle: other 97 % of control | [5] 107 % of control | dose: 25.0 mg/kg/injection, schedule: Q04DX003 (ip), vehicle: saline with Tween-80 104 % of control | dose: 50.0 mg/kg/injection, schedule: Q01DX001 (ip), vehicle: other 101 % of control | [6] 102 % of control | dose: 50.0 mg/kg/injection, schedule: Q04DX003 (ip), vehicle: saline with Tween-80 108 % of control | dose: 100.0 mg/kg/injection, schedule: Q01DX001 (ip), vehicle: other 103 % of control

CCN(CC)CCCC(C)NC(=O)c1cccc2c(N)cccc12 (stereo not given)
inactive: dose: 25.0 mg/kg/injection, schedule: Q01DX009 (ip), vehicle: water 110 % of control | dose: 50.0 mg/kg/injection, schedule: Q01DX009 (ip), vehicle: water 103 % of control | dose: 100.0 mg/kg/injection, schedule: Q01DX009 (ip), vehicle: water 101 % of control | dose: 200.0 mg/kg/injection, schedule: Q01DX009 (ip), vehicle: water 95 % of control | dose: 400.0 mg/kg/injection, schedule: Q01DX009 (ip), vehicle: water 103 % of control

CCN(CC)C(=O)/C=C/c1ccccc1
inactive: [13] 102 % of control | [14] 96 % of control | [15] 96 % of control

N#CC(CC(=O)OCc1ccccc1)NC(=O)OCc1ccccc1 (stereo not given)
inactive: [1] 92 % of control | [2] 89 % of control | [3] 97 % of control

CCOc1ccc(OCC)c(NC(=O)c2ccccc2)c1
inactive: [7] 94 % of control | [8] 92 % of control | [9] 95 % of control

COc1ccc(OC(=O)Nc2ccc(Cl)cc2OC)cc1
inactive: [10] 92 % of control | [11] 95 % of control

CN(C)c1ccc(/C=C(/NC(=O)c2ccccc2)C(N)=O)cc1
inactive: [17] 94 % of control | [18] 96 % of control | [19] 94 % of control

CCN1CCc2ccccc2C1c1ccccc1 (stereo not given)
inactive: dose: 25.0 mg/kg/injection, schedule: Q01DX009 (ip), vehicle: saline 104 % of control | dose: 50.0 mg/kg/injection, schedule: Q01DX009 (ip), vehicle: saline 103 % of control | dose: 100.0 mg/kg/injection, schedule: Q01DX009 (ip), vehicle: saline 106 % of control and 115 % of control

Cc1c2ccc3ccccc3c2c(C)[n+]2ccccc12
inactive: dose: 2.0 mg/kg/injection, schedule: Q01DX Z (ip), vehicle: carboxymethylcellulose (CMC) 122 % of control | dose: 4.0 mg/kg/injection, schedule: Q01DX Z (ip), vehicle: carboxymethylcellulose (CMC) 106 % of control | dose: 8.0 mg/kg/injection, schedule: Q01DX Z (ip), vehicle: carboxymethylcellulose (CMC) 93 % of control

O=C(CC(O)(C(F)(F)F)C(F)(F)F)c1ccc(C(O)CC(O)(C(F)(F)F)C(F)(F)F)cc1 (stereo not given)
inactive: dose: 25.0 mg/kg/injection, schedule: Q01DX009 (ip), vehicle: gum acacia 106 % of control | dose: 25.0 mg/kg/injection, schedule: Q04DX003 (ip), vehicle: gum acacia 102 % of control | dose: 50.0 mg/kg/injection, schedule: Q01DX009 (ip), vehicle: gum acacia 89 % of control | dose: 50.0 mg/kg/injection, schedule: Q04DX003 (ip), vehicle: gum acacia 90 % of control | dose: 100.0 mg/kg/injection, schedule: Q04DX003 (ip), vehicle: gum acacia 93 % of control and 98 % of control
